ChEMBL document CHEMBL6096713, “Tetrazole Is a Novel Zinc Binder Chemotype for Carbonic Anhydrase Inhibition” (ACS Med Chem Lett, 2025)

Experiments:
[1] = target: Carbonic anhydrase 2 (Homo sapiens, UniProt P00918)
Description: Inhibition of human recombinant carbonic anhydrase 2 assessed as inhibition constant incubated for 15 mins by stopped-flow technique

[2] = target: Carbonic anhydrase 1 (Homo sapiens, UniProt P00915)
Description: Inhibition of human recombinant carbonic anhydrase I assessed as inhibition constant incubated for 15 mins by stopped-flow technique

[3] = target: Carbonic anhydrase 12 (Homo sapiens, UniProt O43570)
Description: Inhibition of human recombinant carbonic anhydrase 12 assessed as inhibition constant incubated for 15 mins by stopped-flow technique

[4] = target: Carbonic anhydrase 9 (Homo sapiens, UniProt Q16790)
Description: Inhibition of human recombinant carbonic anhydrase 9 assessed as inhibition constant incubated for 15 mins by stopped-flow technique

Carbonic anhydrase 12, sequence (O43570 whole entry): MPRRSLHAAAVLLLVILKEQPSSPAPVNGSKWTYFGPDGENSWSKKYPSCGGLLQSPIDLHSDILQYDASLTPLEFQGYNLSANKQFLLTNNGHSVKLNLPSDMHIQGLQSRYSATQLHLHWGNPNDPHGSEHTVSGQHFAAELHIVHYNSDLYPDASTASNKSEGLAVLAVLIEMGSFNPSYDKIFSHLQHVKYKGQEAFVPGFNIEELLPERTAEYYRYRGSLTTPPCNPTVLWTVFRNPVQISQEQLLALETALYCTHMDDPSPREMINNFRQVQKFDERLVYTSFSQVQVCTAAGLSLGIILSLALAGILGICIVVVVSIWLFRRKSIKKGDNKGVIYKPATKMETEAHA
Carbonic anhydrase 1, sequence (P00915 whole entry): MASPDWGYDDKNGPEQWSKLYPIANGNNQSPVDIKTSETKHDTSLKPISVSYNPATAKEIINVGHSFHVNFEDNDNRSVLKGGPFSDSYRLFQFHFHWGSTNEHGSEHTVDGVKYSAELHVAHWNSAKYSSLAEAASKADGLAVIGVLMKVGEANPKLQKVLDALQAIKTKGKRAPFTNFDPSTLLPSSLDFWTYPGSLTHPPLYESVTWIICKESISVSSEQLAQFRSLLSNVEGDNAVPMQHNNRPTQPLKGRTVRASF

O=C(O)Cc1nnn[nH]1 showed a Ki [1] of 5.97 µM, a Ki [2] of 4.21 µM and a Ki [3] of 8.21 µM. The Ki [4] was 7.68 µM.
